Measurements as given in US20060211744A1, “3-Pyridinecarboxamide reduces nerve degeneration” (Children's Medical Center, priority 2005, published 2006).
Read-outs that look alike come from different tables or passages of the source.

Assays:
[1] = tested on: cultured DRG neurons (transected axons); assay: Axon degeneration after transection of axons of cultured DRG neurons (Wallerian degeneration); format: cell-based; conditions: sirturin inhibitors; nicotinamide at 50 μM
Description: As a first step in examining the role of NAD in Wallerian degeneration, we used an ultra-sensitive high-performance liquid chromatography (HPLC) method (Micheli and Sestini, 1997) to measure the concentration of NAD and its derivatives in degenerating axons. To do this, the acidic lysates were prepared from axonal segments collected at different time points after transecting the axons from cultured dorsal root ganglia (DRG) and resolved by reverse-phase chromatography. 2 hr after axotomy, when the transected axons were still morphologically indistinguishable from their uncut controls, NAD levels began to decrease. This NAD decrease continued over the course of degeneration, reaching about 50% at 4 hr post-axotomy, to almost undetectable levels by 6 hr after axotomy, when early morphological signs of degeneration began to develop. […] By a similar approach of alkaline extraction (Micheli and Sestini, 1997), it has been difficult for us to detect NADH in the axonal extracts, presumably due to the low abundance of NADH and the high NAD/NADH ratio reported in mammalian cells (Zhang et al., 2002, Kasischke et al., 2004, Kannurpatti et al., 2004).
To definitively determine whether preventing the local decrease in NAD levels could mediate axon protection, we employed soma-free axonal segments that have been separated from their soma as models to examine the protective effects of different pharmacological treatments. It has been shown that exogenously provided NAD, when directly added to the culture medium of DRG neurons, can be transported across the axonal membrane (Araki et al., 2004). Thus, we first examined the protective effects of different concentrations of NAD added to the culture before or after axon transection and removal of ganglia.
To further assess the local and nuclear contribution to such an NAD-dependent protection, we compared the protective effects of NAD provided at different time points. […] In this respect, our results are inconsistent with those shown by Araki et al (2004), possibly due to the different concentrations of NAD used in our studies (1-20 mM) and by Araki et al (0.1 to 1 mM).
We next attempted to explore the possible mechanisms underlying this local NAD-dependent axon protection. […] A possible explanation for this discrepancy between Araki et al (2004) and our results is the different approaches used to block Sirt1 activity. […] It is known that […], other sirturins exist and some of these proteins are localized in the cytoplasmic compartment (Onyango et al., 2002; North et al., 2003).

[2] = tested on: cultured hippocampal neurons; assay: Synaptic loss and process degeneration in cultured hippocampal neurons (dominant-negative Nmnat1); format: cell-based; conditions: 50-200 μM, up to 72 hr
From the text: We next attempted to examine whether decreasing NAD levels can induce similar “dying-back” axon degeneration in neurons with established synaptic connections. Such experiments might allow us to assess whether the degenerative processes in axons and other neuronal structures, including synaptic structures and dendritic processes, share similar mechanisms. To do this, we introduced both wild type and dominant negative Nmnat1 into cultured hippocampal neurons at 20 days in vitro (DIV 20), when their synaptic connections have formed and matured (Brewer et al. 1993), and examined their effects on axons as well as dendrites and synapses. As a conventional approach to visualize these neuronal structures, we also co-infected the hippocampal neurons with HSV expressing YFP. […] Moreover, neuronal NAD levels declined from 24-48 hr post-infection with viruses expressing dominant-negative Nmnat1 but not wild type Nmnat1 or YFP. Thus, we decided to focus our analysis on the first 60 hours post-infection.
To monitor changes in synaptic structures, we co-infected DIV20 neurons with HSV expressing YFP and wild type or the mutant Nmnat1, and quantified both spine density and the length and branching of axons and dendrites. As the density of dendritic spines has been considered a reliable indicator for synapse number (reviewed by Hering and Sheng, 2001), we performed high-resolution YFP imaging in neurons co-expressing YFP and Nmnat1 proteins at the indicated time points post-infection to measure the spine densities in these co-infected neurons. Dendrite length and branching patterns were analyzed using Sholl's method of regularly spaced concentric circles centered on the neuronal soma (Sholl, 1953). […]
In the experiments described above, we also performed immunostaining with antibodies against the presynaptic marker bassoon, and found a decrease of positively-stained synaptic structures. However, due to the complex morphology of the axons that makes it extremely difficult to quantify the axonal length in DIV20 hippocampal neurons, we […]. […]

[3] = tested on: SOD1-G93A transgenic mice; format: in vivo; conditions: for reduction of neural degeneration in ALS mice, behavioral testing: subcutaneous, daily from 10 weeks from birth
[4] = SOD1-G93A, nicotinamide diet from 7 wk of age

Structure (SMILES): NC(=O)c1cccnc1 [nicotinamide, 3-pyridinecarboxamide]
- attenuation of the protective effect of Nmnat1 or NAD [1]: did not attenuate the protective effect
- dendritic spine quantity or structure, compound alone [2]: did not induce significant changes
- age at bilateral hindlimb paralysis ([3]; SOD1-G93A, both normal diet and nicotinamide diet): 127-157 days of age
- age through to which walking capacity is improved (grid walking test) ([3]; SOD1-G93A, nicotinamide diet): 124 days of age
- age through to which motor functions are preserved (Rotarod) ([3]; SOD1-G93A, nicotinamide diet (control diet onset 108 days)): 120 days of age
- onset of impairment in balance, coordination and muscle strength (Rotarod) [3, 4]: significantly delays the onset of impairment
- walking capacity (grid walking test) [3, 4]: significantly improves walking capacity
- Rotarod performance score (latency) ([3]; mouse, in vivo): 180 s
- body condition scoring (BCS) ([3]; mouse, in vivo): 3
- foot miss scores (grid walking test) ([3]; mouse, in vivo): 0
- general health and neurologic status (lacrimation/salivation, eye blink, ear twitch, pupillary response, whisker orienting reflex) ([3]; mouse, in vivo): no obvious differences
- reduction of neural degeneration in ALS mice, behavioral testing ([3]; 125 mg/kg): efficacy
- reduction of neural degeneration in ALS mice, behavioral testing ([3]; 500 mg/kg): efficacy
